This is an account of results in ChEMBL document CHEMBL1201862, “PubChem BioAssay data set” (2004).

Among the test systems are A549; CCRF-CEM; EKVX; HCC 2998; HCT-15; HL-60; HOP-62; HOP-92; IGROV-1; K562; KM12; NCI-H226; NCI-H522; OVCAR-8; RPMI-8226; SF-295; SF-539; SN12C; SNB-19; UACC-62.
Common to all, as to assay: NCI-60 cell line screen, 48 h

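Growth conditions: 96-well plates. Treatment: test compound, 48 hours, 5 concentrations. Analysis: linear interpolation between bracketing concentrations; unreached endpoints set to highest concentration. GI50 is the concentration that inhibits growth by half.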 Activity calls are given as the source filed them. Cut-off read from the data, not from the text of the source: active = GI50 up to about 1.1 µM and inactive = higher. A value given as a limit tells only on which side of the number the result lay.

For `Cc1[nH]c(=O)[nH]c(=O)c1/C=C/C(=O)NC(CO)CC(C)C` (stereo not given), the GI50 is 349 µM (inactive) in the assay on A549; 181 µM (inactive) in the assay on CCRF-CEM; > 375 µM (inactive) with EKVX; 222 µM (inactive) in the assay with HCC 2998; over 360 µM with HCT-15; > 361 µM (inactive) with HL-60. Besides, the GI50 was > 375 µM (inactive) in the assay on HOP-62; 17.5 µM (inactive) with HOP-92; > 375 µM (inactive) in the assay on IGROV-1; 179 µM (inactive) in the assay with K562; > 375 µM (inactive) with KM12; > 375 µM (inactive) in the assay on NCI-H226. For the same compound, the GI50 in the assay with NCI-H522 was 114 µM (inactive); in the assay on OVCAR-8, 160 µM (inactive); in the assay on RPMI-8226 it was > 375 µM (inactive); in the assay with SF-295 it was > 375 µM (inactive); in the assay with SF-539, > 375 µM (inactive); in the assay on SN12C, 274 µM (inactive). The GI50 in the assay on SNB-19 is 356 µM (inactive); with UACC-62 it was > 375 µM (inactive).

Regarding `Cc1ccc2c3c1O[C@H]1c4[nH]c5ccccc5c4C[C@@]4(O)[C@@H](C2)N(CC2CC2)CC[C@]314`, the GI50 with A549 is 14.7 µM (inactive); in the assay with CCRF-CEM, 2.78 µM (inactive); in the assay with EKVX it was 17.4 µM (inactive); in the assay with HCC 2998, 3.78 µM (inactive); in the assay with HCT-15, 12.7 µM; in the assay with HL-60, 5.3 µM (inactive). The GI50 was 19.2 µM (inactive) with HOP-62; 13 µM (inactive) in the assay on HOP-92; 17.4 µM (inactive) in the assay with IGROV-1; 15.5 µM (inactive) with K562; 17 µM (inactive) in the assay with KM12; 14.9 µM (inactive) in the assay with NCI-H226. Further, the GI50 with NCI-H522 was 15 µM (inactive); with OVCAR-8 it was 15.3 µM (inactive); with RPMI-8226, 11.2 µM (inactive); in the assay with SF-295, 17.4 µM (inactive); with SF-539, 16.5 µM (inactive); with SN12C, 15.3 µM (inactive). In addition, the GI50 with SNB-19 is 16.7 µM (inactive); in the assay on UACC-62, 16 µM (inactive).

For `COc1cccc(CCn2c(N)c(-c3cc(Cl)cc(Cl)c3)c3ccc([N+](=O)[O-])cc3c2=O)c1`, the GI50 with A549 was 4.76 µM (inactive); in the assay on CCRF-CEM, 0.787 µM (active); in the assay on EKVX, 4.69 µM (inactive); with HCC 2998 it was 3.51 µM (inactive); with HCT-15 it was 3.19 µM; in the assay with HL-60 it was 0.811 µM (active). In addition, the GI50 with HOP-62 was 5.21 µM (inactive); in the assay with HOP-92, 2.85 µM (inactive); with IGROV-1 it was 3.33 µM (inactive); in the assay on K562 it was 1.75 µM (inactive); in the assay on KM12, 3.47 µM (inactive); in the assay on NCI-H226 it was 3.67 µM (inactive). For the same compound, the GI50 in the assay on NCI-H522 is 2.92 µM (inactive); with OVCAR-8, 3.81 µM (inactive); in the assay with RPMI-8226 it was 0.65 µM (active); in the assay with SF-295, 3.73 µM (inactive); in the assay on SF-539, 77.3 µM (inactive); in the assay with SN12C, 5 µM (inactive). Moreover, the GI50 with SNB-19 was 3.21 µM (inactive); in the assay on UACC-62, 3.33 µM (inactive).
